{
  "source": "patent US10000483B2",
  "about": "“Bone marrow on X chromosome kinase (BMX) inhibitors and uses thereof” (Dana-Farber Cancer Institute, Inc., priority 2012, dated 2018)",
  "key": {"[1]": {"system": "OCI-Ly19 cells", "experiment": "Cell proliferation analysis for WM and lymphoma cell lines (CellTiter-Glo)", "format": "cell-based", "conditions": "Homo sapiens, 72 hours", "method": "(§1) Various cell lines were used including Waldenström's macroglobulinemia (WM) cell lines (BCWM.1, MWCL-1, RPCI-WM1) and B-cell lymphoma cell lines (OCI-Ly3, Ramos, OCI-Ly19). Cells were seeded into 384 well plates with the EL406 Combination Washer Dispenser (BioTek Instruments, Inc.) and inhibitor compounds were injected into the cells culture media with the JANUS Automated Workstation (PerkinElmer Inc.)."}, "[2]": {"target": "BLK (Homo sapiens (Human), UniProt P51451)", "sequence (P51451 whole entry)": "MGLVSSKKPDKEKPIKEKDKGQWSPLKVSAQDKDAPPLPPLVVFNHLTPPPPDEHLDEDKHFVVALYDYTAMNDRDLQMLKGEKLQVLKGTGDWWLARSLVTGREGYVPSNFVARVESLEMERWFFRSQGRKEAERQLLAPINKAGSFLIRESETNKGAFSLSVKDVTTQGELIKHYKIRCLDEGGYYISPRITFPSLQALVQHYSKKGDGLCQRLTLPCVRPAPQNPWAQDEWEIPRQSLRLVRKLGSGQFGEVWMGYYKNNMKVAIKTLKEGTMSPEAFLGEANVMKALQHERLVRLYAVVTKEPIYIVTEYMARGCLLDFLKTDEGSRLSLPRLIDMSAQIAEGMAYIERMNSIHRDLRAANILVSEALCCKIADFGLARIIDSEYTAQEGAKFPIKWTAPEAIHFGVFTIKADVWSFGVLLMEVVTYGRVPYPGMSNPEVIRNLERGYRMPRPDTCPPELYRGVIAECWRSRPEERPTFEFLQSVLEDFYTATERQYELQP", "experiment": "DiscoverX binding assay", "quoted_text": "(§2) Screening hits are identified by measuring the amount of protein captured in test versus control samples by using a quantitative, precise, and ultra-sensitive qPCR method that detects the associated DNA label."}, "[3]": {"target": "JNK3 (Homo sapiens (Human), UniProt P53779)", "experiment": "Kinase panel at 1 uM (Table 9)", "format": "binding", "conditions": "read-out: % inhibition at 1 uM, JNK3", "quoted_text": "as §2"}, "[4]": {"system": "RV-1 cells", "experiment": "Anti-proliferation assay for prostate cancer cells (CellTiter-Glo)", "format": "cell-based", "method": "(§3) Data were normalized to control group (DMSO) and represented by the mean of at least two independent measurement with standard error <20%. GI50 were calculated using Prism 5.0 (GraphPad Software, San Diego, Calif.)."}, "[5]": {"system": "FLT3(ITD)", "experiment": "Kinase panel at 1 uM (Table 9)", "format": "binding", "quoted_text": "as §2"}, "[6]": {"system": "Ramos cells", "experiment": "Cell proliferation analysis for WM and lymphoma cell lines (CellTiter-Glo)", "format": "cell-based", "conditions": "Homo sapiens, 72 hours", "method": "as §1"}, "[7]": {"system": "TEL-JAK3 transformed Ba/F3 cells", "experiment": "cells", "conditions": "Mus musculus, BaF3, read-out: GI50, TEL-JAK3 (+IL-3)"}, "[8]": {"system": "RV-1 cells expressing wild-type BMX or C496S mutant", "conditions": "FIG. 16"}, "[9]": {"target": "DYRK1A (Homo sapiens (Human), UniProt Q13627)", "experiment": "Kinase panel at 1 uM (Table 9)", "format": "binding", "conditions": "read-out: % inhibition at 1 uM, DYRK1A", "quoted_text": "as §2"}, "[10]": {"target": "BMX (Homo sapiens (Human), UniProt P51813)", "sequence (P51813 whole entry)": "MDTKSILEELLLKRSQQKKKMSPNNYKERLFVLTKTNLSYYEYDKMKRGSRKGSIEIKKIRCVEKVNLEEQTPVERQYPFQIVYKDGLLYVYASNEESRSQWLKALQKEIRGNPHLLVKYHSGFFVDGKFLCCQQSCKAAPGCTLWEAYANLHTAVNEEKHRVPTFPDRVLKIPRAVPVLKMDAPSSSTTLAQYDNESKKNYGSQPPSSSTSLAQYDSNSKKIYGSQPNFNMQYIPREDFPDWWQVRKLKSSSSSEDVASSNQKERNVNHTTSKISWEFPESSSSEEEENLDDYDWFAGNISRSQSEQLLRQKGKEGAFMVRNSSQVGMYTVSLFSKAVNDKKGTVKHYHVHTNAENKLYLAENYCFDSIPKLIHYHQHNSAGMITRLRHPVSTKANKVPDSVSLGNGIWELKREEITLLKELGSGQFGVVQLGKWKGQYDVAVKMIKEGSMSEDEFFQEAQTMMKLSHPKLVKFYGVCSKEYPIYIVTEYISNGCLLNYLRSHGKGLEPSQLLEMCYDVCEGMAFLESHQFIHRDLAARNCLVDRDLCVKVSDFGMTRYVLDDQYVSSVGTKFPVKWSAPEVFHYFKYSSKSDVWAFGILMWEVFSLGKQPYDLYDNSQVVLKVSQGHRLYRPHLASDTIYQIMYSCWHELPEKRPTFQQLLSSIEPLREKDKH", "experiment": "BMX protein levels in RV-1 cells", "format": "cell-based", "conditions": "72 h treatment, 5 μM", "from_the_text": "Moreover, the depletion could be rescued upon stable overexpression of the C496S mutant BMX."}, "[11]": {"system": "RV1 xenograft", "experiment": "RV1 xenograft growth", "conditions": "over 2 weeks, in vivo treatment; FIG. 19"}, "[12]": {"system": "WT-Ba/F3 cells", "experiment": "cells", "conditions": "Mus musculus, BaF3, read-out: GI50, WT-Ba/F3"}, "[13]": {"target": "MKNK2 (Homo sapiens (Human), UniProt Q9HBH9)", "sequence (Q9HBH9 whole entry)": "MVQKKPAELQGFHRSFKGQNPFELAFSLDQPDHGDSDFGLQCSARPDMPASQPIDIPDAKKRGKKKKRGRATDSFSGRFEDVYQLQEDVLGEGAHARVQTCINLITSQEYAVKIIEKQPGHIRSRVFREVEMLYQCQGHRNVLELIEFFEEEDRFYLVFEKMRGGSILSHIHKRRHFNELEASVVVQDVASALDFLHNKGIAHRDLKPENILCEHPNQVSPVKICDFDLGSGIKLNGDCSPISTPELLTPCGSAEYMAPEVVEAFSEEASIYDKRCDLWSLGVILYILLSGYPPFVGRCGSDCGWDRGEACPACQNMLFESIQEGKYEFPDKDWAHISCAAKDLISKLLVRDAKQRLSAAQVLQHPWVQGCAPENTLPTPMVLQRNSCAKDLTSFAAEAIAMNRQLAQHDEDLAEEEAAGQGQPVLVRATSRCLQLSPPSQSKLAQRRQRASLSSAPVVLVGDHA", "experiment": "Kinase panel at 1 uM (Table 9)", "format": "binding", "conditions": "read-out: % inhibition at 1 uM, MKNK2", "quoted_text": "as §2"}, "[14]": {"system": "TEL-Abl transformed Ba/F3 cells", "experiment": "cells", "conditions": "Mus musculus, BaF3, read-out: GI50, TEL-Abl"}, "[15]": {"target": "JAK3 (Homo sapiens (Human), UniProt P52333)", "sequence (P52333 whole entry)": "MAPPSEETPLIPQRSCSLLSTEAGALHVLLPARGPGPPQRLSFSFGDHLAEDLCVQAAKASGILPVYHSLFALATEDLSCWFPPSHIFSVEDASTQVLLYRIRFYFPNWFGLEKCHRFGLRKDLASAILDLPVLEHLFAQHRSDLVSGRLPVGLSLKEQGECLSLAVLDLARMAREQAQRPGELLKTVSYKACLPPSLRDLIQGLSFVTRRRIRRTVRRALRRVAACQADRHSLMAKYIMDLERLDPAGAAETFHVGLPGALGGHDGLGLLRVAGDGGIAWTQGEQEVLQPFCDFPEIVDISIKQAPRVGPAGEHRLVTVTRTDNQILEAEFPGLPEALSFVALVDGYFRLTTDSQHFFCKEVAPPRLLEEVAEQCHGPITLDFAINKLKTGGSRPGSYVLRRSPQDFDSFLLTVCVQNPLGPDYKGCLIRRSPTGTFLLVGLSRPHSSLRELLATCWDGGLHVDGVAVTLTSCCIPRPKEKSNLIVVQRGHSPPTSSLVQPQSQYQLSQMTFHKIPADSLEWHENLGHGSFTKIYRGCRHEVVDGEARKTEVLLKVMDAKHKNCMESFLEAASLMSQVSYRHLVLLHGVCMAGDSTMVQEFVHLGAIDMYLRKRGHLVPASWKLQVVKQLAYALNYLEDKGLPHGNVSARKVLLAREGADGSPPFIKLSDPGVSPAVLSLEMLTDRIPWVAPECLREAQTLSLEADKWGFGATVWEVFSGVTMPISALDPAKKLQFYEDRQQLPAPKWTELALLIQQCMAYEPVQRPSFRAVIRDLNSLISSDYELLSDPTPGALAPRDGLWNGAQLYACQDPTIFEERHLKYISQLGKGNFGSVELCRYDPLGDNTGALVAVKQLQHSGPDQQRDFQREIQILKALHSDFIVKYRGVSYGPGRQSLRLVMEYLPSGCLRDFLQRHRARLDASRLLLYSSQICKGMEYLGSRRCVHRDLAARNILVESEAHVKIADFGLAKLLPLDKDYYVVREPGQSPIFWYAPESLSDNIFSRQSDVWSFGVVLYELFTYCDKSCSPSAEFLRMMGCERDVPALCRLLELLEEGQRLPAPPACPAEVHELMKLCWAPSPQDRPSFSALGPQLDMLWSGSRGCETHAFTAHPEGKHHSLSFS", "experiment": "DiscoverX binding assay", "quoted_text": "as §2"}, "[16]": {"system": "DU-145 cells", "experiment": "cells", "conditions": "Homo sapiens, DU-145, read-out: GI50, DU-145", "method": "as §3"}, "[17]": {"target": "CLK1 (Homo sapiens (Human), UniProt P49759)", "sequence (P49759 whole entry)": "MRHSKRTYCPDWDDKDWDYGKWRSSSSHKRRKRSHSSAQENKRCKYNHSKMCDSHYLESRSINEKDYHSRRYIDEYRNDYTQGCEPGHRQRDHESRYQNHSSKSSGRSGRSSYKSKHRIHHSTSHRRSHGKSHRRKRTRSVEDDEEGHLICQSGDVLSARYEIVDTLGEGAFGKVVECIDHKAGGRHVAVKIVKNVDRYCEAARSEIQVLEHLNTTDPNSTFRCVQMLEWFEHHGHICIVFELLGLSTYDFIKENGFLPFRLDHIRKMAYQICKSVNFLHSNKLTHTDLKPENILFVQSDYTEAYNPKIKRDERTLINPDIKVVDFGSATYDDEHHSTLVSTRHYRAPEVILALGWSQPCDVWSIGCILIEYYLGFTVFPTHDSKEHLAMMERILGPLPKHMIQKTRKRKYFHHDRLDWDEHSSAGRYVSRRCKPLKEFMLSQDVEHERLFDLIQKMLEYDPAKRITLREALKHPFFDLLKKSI", "experiment": "DiscoverX binding assay", "conditions": "read-out: % inhibition at 1 uM, CLK1", "quoted_text": "as §2"}, "[18]": {"target": "TAK1 (Homo sapiens (Human), UniProt O43318)", "sequence (O43318 whole entry)": "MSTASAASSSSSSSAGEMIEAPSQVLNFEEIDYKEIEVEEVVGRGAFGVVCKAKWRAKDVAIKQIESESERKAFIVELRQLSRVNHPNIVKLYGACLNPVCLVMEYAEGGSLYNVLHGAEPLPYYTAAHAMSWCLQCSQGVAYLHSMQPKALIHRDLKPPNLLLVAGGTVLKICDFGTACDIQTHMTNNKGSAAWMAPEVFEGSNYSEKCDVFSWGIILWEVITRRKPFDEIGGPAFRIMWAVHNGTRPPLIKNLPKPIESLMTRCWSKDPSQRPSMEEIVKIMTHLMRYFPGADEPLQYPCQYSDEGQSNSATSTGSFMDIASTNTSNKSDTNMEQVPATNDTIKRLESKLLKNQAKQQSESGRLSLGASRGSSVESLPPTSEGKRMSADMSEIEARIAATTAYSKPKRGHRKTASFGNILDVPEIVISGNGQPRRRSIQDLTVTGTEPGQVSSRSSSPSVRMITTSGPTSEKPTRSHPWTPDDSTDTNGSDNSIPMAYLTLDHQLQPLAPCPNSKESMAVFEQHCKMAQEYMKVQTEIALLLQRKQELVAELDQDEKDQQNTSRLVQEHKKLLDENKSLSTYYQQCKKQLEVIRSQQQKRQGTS", "experiment": "Kinase panel at 1 uM (Table 9)", "format": "binding", "conditions": "read-out: % inhibition at 1 uM, TAK1", "quoted_text": "as §2"}, "[19]": {"target": "CLK2 (Homo sapiens (Human), UniProt P49760)", "sequence (P49760 whole entry)": "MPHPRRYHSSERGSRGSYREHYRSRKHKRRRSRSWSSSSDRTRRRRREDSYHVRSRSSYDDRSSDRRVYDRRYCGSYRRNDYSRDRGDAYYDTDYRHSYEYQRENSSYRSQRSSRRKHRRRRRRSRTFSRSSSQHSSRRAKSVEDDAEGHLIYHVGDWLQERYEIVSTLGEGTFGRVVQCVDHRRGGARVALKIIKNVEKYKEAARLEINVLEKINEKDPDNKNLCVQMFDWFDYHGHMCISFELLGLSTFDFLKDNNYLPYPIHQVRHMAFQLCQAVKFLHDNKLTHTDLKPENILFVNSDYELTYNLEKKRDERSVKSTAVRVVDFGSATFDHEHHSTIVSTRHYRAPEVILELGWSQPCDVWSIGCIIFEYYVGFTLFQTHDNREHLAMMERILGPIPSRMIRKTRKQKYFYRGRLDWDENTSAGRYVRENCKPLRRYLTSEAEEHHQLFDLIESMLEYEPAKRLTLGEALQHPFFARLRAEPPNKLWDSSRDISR", "experiment": "DiscoverX binding assay", "conditions": "read-out: % inhibition at 1 uM, CLK2", "quoted_text": "as §2"}, "[20]": {"target": "CSNK2A2 (Homo sapiens (Human), UniProt P19784)", "sequence (P19784 whole entry)": "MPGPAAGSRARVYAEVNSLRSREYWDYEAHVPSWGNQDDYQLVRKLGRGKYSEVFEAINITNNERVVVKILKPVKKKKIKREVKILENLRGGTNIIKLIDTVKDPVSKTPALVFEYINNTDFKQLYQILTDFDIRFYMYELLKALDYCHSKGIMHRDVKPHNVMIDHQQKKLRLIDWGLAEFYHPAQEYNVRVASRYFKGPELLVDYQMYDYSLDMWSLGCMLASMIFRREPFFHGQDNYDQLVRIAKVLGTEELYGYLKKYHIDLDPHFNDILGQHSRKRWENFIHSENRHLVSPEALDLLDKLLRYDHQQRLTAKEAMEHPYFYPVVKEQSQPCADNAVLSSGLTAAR", "experiment": "Kinase panel at 1 uM (Table 9)", "format": "binding", "conditions": "read-out: % inhibition at 1 uM, CSNK2A2", "quoted_text": "as §2"}, "[21]": {"target": "ITK (Homo sapiens (Human), UniProt Q08881)", "experiment": "DiscoverX binding assay", "quoted_text": "as §2"}},
  "data": [
    {"smiles": "C=CC(=O)Nc1cc(-n2c(=O)ccc3cnc4ccc(-c5ccc(NS(C)(=O)=O)cc5)cc4c32)ccc1C", "note": "[I-14]", "values": [
      {"measurement": "EC50", "setting": "[1]", "value": 0.9, "unit": "µM"},
      {"measurement": "Percent Control, BLK", "setting": "[2]; DiscoverX binding", "value": 40, "unit": "%"},
      {"measurement": "inhibition at 1 µM", "setting": "[2]; read-out: % inhibition at 1 uM, BLK", "value": 40, "unit": "%"},
      {"measurement": "inhibition at 1 µM", "setting": "[3]", "value": 100, "unit": "%"},
      {"measurement": "GI50", "setting": "[4]; RV-1", "value": 2.54, "unit": "µM"},
      {"measurement": "IC50", "setting": "[4]; RV-1, 120 h, 5 day incubation", "value": 2.53, "unit": "µM"},
      {"measurement": "% inhibition at 1 uM, FLT3(ITD)", "setting": "[5]", "value": 99, "unit": "%"},
      {"measurement": "EC50", "setting": "[6]", "value": "> 20", "unit": "µM"},
      {"measurement": "GI50", "setting": "[7]", "value": 7.77, "unit": "µM"},
      {"measurement": "growth inhibition of cells expressing wild-type BMX versus C496S mutant", "setting": "[8]", "value": "more potently inhibits growth of cells expressing the wild-type BMX than the C496S mutant"},
      {"measurement": "inhibition at 1 µM", "setting": "[9]", "value": 100, "unit": "%"},
      {"measurement": "BMX protein levels in RV-1 cells", "setting": "[10]", "value": "significantly reduced"},
      {"measurement": "RV1 xenograft growth", "setting": "[11]", "value": "decreased"},
      {"measurement": "GI50", "setting": "[12]", "value": "> 10", "unit": "µM"},
      {"measurement": "inhibition at 1 µM", "setting": "[13]", "value": 100, "unit": "%"},
      {"measurement": "GI50", "setting": "[14]", "value": "> 10", "unit": "µM"},
      {"measurement": "Percent Control, JAK3", "setting": "[15]; DiscoverX binding", "value": 20, "unit": "%"},
      {"measurement": "inhibition at 1 µM", "setting": "[15]; read-out: % inhibition at 1 uM, JAK3(JH1domain-catalytic)", "value": 6.6, "unit": "%"},
      {"measurement": "GI50", "setting": "[16]", "value": 4.38, "unit": "µM"},
      {"measurement": "inhibition at 1 µM", "setting": "[17]", "value": 95, "unit": "%"},
      {"measurement": "inhibition at 1 µM", "setting": "[18]", "value": 83, "unit": "%"},
      {"measurement": "inhibition at 1 µM", "setting": "[19]", "value": 100, "unit": "%"},
      {"measurement": "inhibition at 1 µM", "setting": "[20]", "value": 100, "unit": "%"},
      {"measurement": "Percent Control, ITK", "setting": "[21]", "value": 52, "unit": "%"}
    ]}
  ]
}
